SMILES strings stand for the structures. Some results are limits rather than exact numbers.

The source of these data is patent US11590116B2 (THERAVANCE BIOPHARMA R&D IP, LLC, priority 2019, dated 2023).

The subject of test [1] is TGF-β-stimulated SMAD3 phosphorylation in BEAS-2B cells. Nature of the test: Cellular ALK5 potency assay, inhibition of TGF-β stimulated pSMAD3 formation in BEAS-2B cells. Format: cell-based. The following applies: Homo sapiens; inhibition of TGF-β stimulated pSMAD3 formation, BEAS-2B cells; read-out: BEAS2B pIC50 (converted). The essentials:
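Cells seeded overnight; rinse with supplemented HBSS; compound 1 h at 37 °C; TGF-β 10 ng/mL final, 30 min; lyse; AlphaLISA acceptor and detector beads 2 h apart, read next day. Potency expressed as pIC50.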

The target in test [2] is T1, recombinant human ALK5 (TGF-βR1) protein (Homo sapiens, UniProt P36897).
T1 construct: purchased Life Technologies PR9075A
T1 sequence (P36897 34-503): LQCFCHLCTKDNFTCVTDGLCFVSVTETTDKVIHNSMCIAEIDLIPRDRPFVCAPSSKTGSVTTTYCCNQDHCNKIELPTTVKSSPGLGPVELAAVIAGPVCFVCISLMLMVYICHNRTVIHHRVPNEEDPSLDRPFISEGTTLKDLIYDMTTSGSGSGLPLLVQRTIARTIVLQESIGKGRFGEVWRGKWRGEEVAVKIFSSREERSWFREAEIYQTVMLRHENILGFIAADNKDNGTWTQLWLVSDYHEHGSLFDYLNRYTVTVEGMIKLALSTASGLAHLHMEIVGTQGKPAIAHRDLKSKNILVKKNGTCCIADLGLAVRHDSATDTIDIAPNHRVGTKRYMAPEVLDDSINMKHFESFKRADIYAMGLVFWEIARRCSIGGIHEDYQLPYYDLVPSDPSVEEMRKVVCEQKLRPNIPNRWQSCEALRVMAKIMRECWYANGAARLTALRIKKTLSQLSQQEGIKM
Nature of the test: Biochemical ALK5 (TGF-βR1) assay to measure pKi (LANCE Ultra ULight kinase assay). The following applies: apparent pKi from pIC50 by Cheng-Prusoff, read-out: ALK5 pKi (converted). Put shortly: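 Dose range 10 μM–25 pM; enzyme + compound 60 min RT; ATP added (5× stock 125 μM, 2 mM DTT); 60 min 37 °C; stop with EDTA + Eu anti-phospho-Topo IIα Thr1342 Ab; TR-FRET ex 320/340, em 665 nm. 4-param pIC50 → pKi (Cheng-Prusoff).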
A general note: Time-resolved FRET reads energy transfer from a long-lived donor to a nearby acceptor.

With `Cc1nc(-c2n[nH]cc2-c2ccc3ncc(-c4cn5c(n4)NCC5)cc3n2)ccc1F` [Compound 658, 7-(2,3-dihydro-1H-imidazo[1,2-a]imidazol-6-yl)-2-[3-(5-fluoro-6-methyl-2-pyridyl)-1H-pyrazol-4-yl]-1,5-naphthyridine], the IC50 in test [1] is < 20 nM. Besides, in test [2], the Ki is < 0.0316 nM.
Consider `Cc1cccc(-c2[nH]cnc2-c2ccc3ncc(-c4ccnc(C(=O)O[C@H]5CCNC5)c4)cc3c2)n1` [Compound 1058, [(3S)-pyrrolidin-3-yl] 4-[6-[5-(6-methyl-2-pyridyl)-1H-imidazol-4-yl]-3-quinolyl]pyridine-2-carboxylate], for which, in test [1], the IC50 was 200 to 1260 nM. Also, the Ki in test [2] was 0.0398 to 0.316 nM.
In the same order, the values of `Cc1cccc(-c2c(-c3ccc4ncc(N5CCCNCC5)cc4c3)nnn2Cc2ccccc2)n1` [Compound 360, 6-[1-benzyl-5-(6-methyl-2-pyridyl)triazol-4-yl]-3-(1,4-diazepan-1-yl)quinoline] are 1580 to 10000 nM and 0.398 to 3.16 nM.
With `Cc1nc(-c2n[nH]cc2-c2ccc3ncc(N4CCC(N)C4)cc3n2)ccc1F` (stereo not shown) [Compound 334, 1-[6-[3-(5-fluoro-6-methyl-2-pyridyl)-1H-pyrazol-4-yl]-1,5-naphthyridin-3-yl]pyrrolidin-3-amine], the IC50 in test [1] is 25.1 to 158 nM. Further, the Ki in test [2] is 0.0398 to 0.316 nM.
On to `Cc1cccc(-c2[nH]cnc2-c2ccc3ncc(C4=CCC(C(=O)OCC5CNC5)CC4)cc3c2)n1` (stereo not shown) [Compound 36, azetidin-3-ylmethyl 4-[6-[5-(6-methyl-2-pyridyl)-1H-imidazol-4-yl]-3-quinolyl]cyclohex-3-ene-1-carboxylate], for which the IC50 in test [1] was 25.1 to 158 nM. For the same molecule, the Ki in test [2] was 0.0398 to 0.316 nM.
On to `COc1ccc(-c2cnc3ccc(-c4c[nH]nc4-c4cccc(C)n4)nc3c2)cn1` [Compound 420, 7-(6-methoxy-3-pyridyl)-2-[3-(6-methyl-2-pyridyl)-1H-pyrazol-4-yl]-1,5-naphthyridine], for which, in test [1], the IC50 was < 20 nM. Further, in test [2], the Ki is < 0.0316 nM.
In the same order, the values of `Cc1cccc(-c2[nH]cnc2-c2ccc3ncc(NC(=O)C4CCNCC4)cc3c2)n1` [Compound 649, N-[6-[5-(6-methyl-2-pyridyl)-1H-imidazol-4-yl]-3-quinolyl]piperidine-4-carboxamide] are 200 to 1260 nM and 0.0398 to 0.316 nM.
Take `CNCc1c(-c2cn[nH]c2)cnc2ccc(-c3c[nH]nc3-c3cccc(C)n3)cc12` [Compound 471, N-methyl-1-[6-[3-(6-methyl-2-pyridyl)-1H-pyrazol-4-yl]-3-(1H-pyrazol-4-yl)-4-quinolyl]methanamine]: the IC50 in test [1] is 25.1 to 158 nM. Further, the Ki in test [2] was 0.0398 to 0.316 nM.
On to `Cc1cccc(-c2[nH]cnc2-c2ccc3ncc(C(=O)OCCCCN4CCCC4)cc3c2)n1` [Compound 714, 4-pyrrolidin-1-ylbutyl 6-[5-(6-methyl-2-pyridyl)-1H-imidazol-4-yl]quinoline-3-carboxylate], for which, in test [1], the IC50 is 25.1 to 158 nM. Further, in test [2], the Ki is 0.0398 to 0.316 nM.
In the same order, the values of `COC(=O)CC1CNCCN1CCNc1cnc2ccc(-c3nc[nH]c3-c3cccc(C)n3)cc2c1` (stereo not shown) [Compound 659, methyl 2-[1-[2-[[6-[5-(6-methyl-2-pyridyl)-1H-imidazol-4-yl]-3-quinolyl]amino]ethyl]piperazin-2-yl]acetate] are 200 to 1260 nM and 0.0398 to 0.316 nM.
In the same order, the values of `Cc1cccc(-c2n[nH]cc2-c2ccc3ncc(N4CCC(C)(O)CC4)cc3n2)n1` [Compound 617, 4-methyl-1-[6-[3-(6-methyl-2-pyridyl)-1H-pyrazol-4-yl]-1,5-naphthyridin-3-yl]piperidin-4-ol] are < 20 nM and < 0.0316 nM.
In the same order, the values of `Cc1cccc(-c2[nH]cnc2-c2ccc3ncc(-c4cc(C(=O)OCC5CNC5)cs4)cc3c2)n1` [Compound 1070, azetidin-3-ylmethyl 5-[6-[5-(6-methyl-2-pyridyl)-1H-imidazol-4-yl]-3-quinolyl]thiophene-3-carboxylate] are 25.1 to 158 nM and < 0.0316 nM.
Consider `Cc1cccc(-c2[nH]cnc2-c2ccc3ncc(C(=O)O[C@@H]4CCCC[C@H]4N)cc3c2)n1` [Compound 880, (1R,2R)-2-aminocyclohexyl 6-(5-(6-methylpyridin-2-yl)-1H-imidazol-4-yl)quinoline-3-carboxylate], for which, in test [1], the IC50 was 25.1 to 158 nM. Further, in test [2], the Ki was 0.398 to 3.16 nM.
For `Cc1cccc(-c2[nH]cnc2-c2ccc3ncc(C(=O)O[C@H]4CCC[C@H](N)C4)cc3c2)n1` (racemic) [Compound 774, [rac-(1S,3S)-3-aminocyclohexyl] 6-[5-(6-methyl-2-pyridyl)-1H-imidazol-4-yl]quinoline-3-carboxylate], the IC50 in test [1] was 200 to 1260 nM. The Ki in test [2] is 0.398 to 3.16 nM.
On to `Cc1cccc(-c2[nH]cnc2-c2ccc3ncc(C4=CCC(NC(=O)CC5CNC5)CC4)cc3c2)n1` (racemic) [Compound 793, 2-(azetidin-3-yl)-N-[rac-(1R)-4-[6-[5-(6-methyl-2-pyridyl)-1H-imidazol-4-yl]-3-quinolyl]cyclohex-3-en-1-yl]acetamide], for which the IC50 in test [1] is 200 to 1260 nM. Besides, the Ki in test [2] was 0.0398 to 0.316 nM.
For `Cc1cccc(-c2n[nH]cc2-c2ccc3ncc(N4CCCCC4)cc3n2)n1` [Compound 22, 2-[3-(6-methyl-2-pyridyl)-1H-pyrazol-4-yl]-7-(1-piperidyl)-1,5-naphthyridine], the IC50 in test [1] is 25.1 to 158 nM. The Ki in test [2] was 0.0398 to 0.316 nM.
As for `Cc1cccc(-c2[nH]cnc2-c2ccc3ncc(-c4nc(C(=O)OC5CCNCC5)cs4)cc3c2)n1` [Compound 742, 4-piperidyl 2-[6-[5-(6-methyl-2-pyridyl)-1H-imidazol-4-yl]-3-quinolyl]thiazole-4-carboxylate], the IC50 in test [1] is 25.1 to 158 nM. The Ki in test [2] was 0.0398 to 0.316 nM.
For `Cc1cccc(-c2[nH]cnc2-c2ccc3ncc(-c4cccc(C(=O)OC5CCNCC5)n4)cc3c2)n1` [Compound 1062, 4-piperidyl 6-[6-[5-(6-methyl-2-pyridyl)-1H-imidazol-4-yl]-3-quinolyl]pyridine-2-carboxylate], in test [1], the IC50 is 25.1 to 158 nM. In addition, in test [2], the Ki is 0.0398 to 0.316 nM.
For the molecule `Cc1cccc(-c2[nH]cnc2-c2ccc3ncc(C(=O)OCCN4CCCC4)cc3c2)n1` [Compound 737, 2-pyrrolidin-1-ylethyl 6-[5-(6-methyl-2-pyridyl)-1H-imidazol-4-yl]quinoline-3-carboxylate], in test [1], the IC50 was 25.1 to 158 nM. Further, the Ki in test [2] was 0.398 to 3.16 nM.
In the same order, the values of `Cc1cccc(-c2[nH]cnc2-c2ccc3ncc(N4CCNC(CC(=O)OCC(C)C)C4)cc3c2)n1` (stereo not shown) [Compound 690, isobutyl 2-[4-[6-[5-(6-methyl-2-pyridyl)-1H-imidazol-4-yl]-3-quinolyl]piperazin-2-yl]acetate] are 25.1 to 158 nM and 0.0398 to 0.316 nM.
In the same order, the values of `Cc1cccc(-c2[nH]cnc2-c2ccc3ncc(C4=CCN(Cc5ccccc5)C4)cc3c2)n1` [Compound 232, 3-(1-benzyl-2,5-dihydropyrrol-3-yl)-6-[5-(6-methyl-2-pyridyl)-1H-imidazol-4-yl]quinoline] are 25.1 to 158 nM and < 0.0316 nM.
In the same order, the values of `Cc1cccc(-c2[nH]ncc2-c2ccc3ncc(C(=O)OCCC4CNC4)cc3c2)n1` [Compound 1204, 2-(azetidin-3-yl)ethyl 6-[5-(6-methyl-2-pyridyl)-1H-pyrazol-4-yl]quinoline-3-carboxylate] are 25.1 to 158 nM and < 0.0316 nM.
In the case of `Cc1cccc(-c2n[nH]cc2-c2ccc3ncc(-c4cccc(F)c4)cc3n2)n1` [Compound 58, 7-(3-fluorophenyl)-2-[3-(6-methyl-2-pyridyl)-1H-pyrazol-4-yl]-1,5-naphthyridine], the IC50 in test [1] is 25.1 to 158 nM. In addition, the Ki in test [2] is 0.0398 to 0.316 nM.
In the same order, the values of `Cc1cccc(-c2n[nH]cc2-c2ccc3nccc(CN(C)C)c3n2)n1` [Compound 830, N,N-dimethyl-1-[6-[3-(6-methyl-2-pyridyl)-1H-pyrazol-4-yl]-1,5-naphthyridin-4-yl]methanamine] are 25.1 to 158 nM and 3.98 to 31.6 nM.
As to `Cc1cccc(-c2n[nH]cc2-c2ccc3ncc(NC(=O)CCN4CCN(C(C)C)CC4)cc3n2)n1` [Compound 530, 3-(4-isopropylpiperazin-1-yl)-N-[6-[3-(6-methyl-2-pyridyl)-1H-pyrazol-4-yl]-1,5-naphthyridin-3-yl]propanamide], the IC50 in test [1] is 25.1 to 158 nM. The Ki in test [2] is 0.0398 to 0.316 nM.
For the molecule `Cc1cccc(-c2[nH]cnc2-c2ccc3ncc(C(=O)O[C@H]4CCNC4)cc3c2)n1` [Compound 757, [(3S)-pyrrolidin-3-yl] 6-[5-(6-methyl-2-pyridyl)-1H-imidazol-4-yl]quinoline-3-carboxylate], in test [1], the IC50 was 25.1 to 158 nM. For the same molecule, the Ki in test [2] is 0.398 to 3.16 nM.
